According to patent US9241964B2, “Composition from Sphaeranthus indicus and Garcinia mangostana for the control of metabolic syndrome” (LAILA NUTRACEUTICALS, priority 2009, dated 2016):

Tested on: CD36
Test: Immunoblot of CD36 in high glucose induced J774 macrophage cells
Assay type: cell-based, mouse
Conditions: glucose 600 mg/dL for 5 days, LI054A01 at 1 μg/ml
Description: In macrophages, CD36 is a scavenger receptor that mediates uptake of oxidized low-density lipoprotein (OxLDL) and subsequent foam-cell development. Therefore, increased level of CD36 in macrophages has been considered as a predictive marker for development of atherosclerosis. Inhibition of CD36 protein expression in high glucose induced J774 macrophage cells in presence or absence of LI/DD-II/054A/01 and LI054A01 was evaluated using immunoblot assay. Briefly, equal amount of cell lysates protein obtained after treating the cells with LI/DD-II/054A/01 or LI054A01 was resolved in 7.5% SDS-PAGE; thereafter, the proteins were transferred to nitrocellulose membrane. […] Finally, the specific immuno-reactive bands were developed with West-pico chemiluminescent substrate (Pierce Biotechnology, IL, USA), and the immunoblot images were recorded in a Kodak Image Station (Kodak, USA). Band intensities were calculated densitometrically and normalized with expression of actin in respective samples. […]
Experimental protocol: This was evaluated in glucose induced J774, mouse macrophage cells. […] Protein concentration was measured by Bradford method.
Inhibition of CD36 protein expression in high glucose induced J774 macrophage cells in presence or absence of LI/DD-II/054A/01 and LI054A01 was evaluated in immunoblot assay. […]

`C=C1C(=O)O[C@H]2C3=C(C)CCC[C@]3(C)CC[C@@]12O` [LI054A01, 7-α-hydroxy-4,11(13)-eudesmadien-12,6-olide] was tested, and the “inhibition of CD36 compared to that shown by LI/DD-II/054A/01” value was 10 times.
